Laboratory results taken from patent publication US20050154052A1, “Novel crystalline forms of (s)-citalopram oxalate” (Hetero Drugs Limited, priority 2003, published 2005).
Counter-ions that a name gives are not always drawn.

Assay: Solubility of (S)-citalopram oxalate in alcohol
Format: physicochemical
Details: 5 gm in 35 ml of methanol at 25° C.
Source text: According to another aspect of the present invention there is provided a process for preparation of the Form II of (S)-citalopram oxalate. Thus (S)-citalopram oxalate is mixed with an alcohol. (S)-Citalopram oxalate prepared by the process described in, for example, EP 0347066 or the Form I of (S)-citalopram oxalate may be used. The alcohol is either methanol or ethanol or isopropyl alcohol. The solubility of (S)-citalopram oxalate depends on the alcohol used and volume of the alcohol to (S)-citalopram oxalate. For example, 5 gm of (S)-citalopram oxalate is soluble in 35 ml of methanol at 25° C. If (S)-citalopram oxalate is soluble in the conditions of experiment, the Form II of (S)-citalopram oxalate is precipitated from the solution. The techniques such as cooling, partial removal of the solvent, addition of anti-solvent like diisopropyl ether may be used to precipitate the Form II of (S)-citalopram oxalate. If the (S)-citalopram oxalate is insoluble in the alcohol, after mixing (S)-citalopram oxalate and the alcohol the solid is filtered from the contents to obtain Form II of (S)-citalopram oxalate.

solubility in methanol: soluble
Structure (SMILES): CN(C)CCC[C@@]1(c2ccc(F)cc2)OCc2cc(C#N)ccc21 [(S)-citalopram oxalate, 1(S)-[3-(Dimethylamino)propyl]-1-(4-fluorophenyl)-1,3-dihydro-5-isobenzofurancarbonitrile]
